# Numbered stars: 1 amine (or outer) side, 2 acyl side, 3 side chain; on linkers, the order of the positions; unused ones are H or OH. Bridge positions count the residues as written; N and C are the ends. Square brackets hold non-standard residues; d marks the D form. Side chains are listed from the residue outwards. Peptide text beside a SMILES is read from it. I, II: the chains in the order shown. * marks the point of attachment. EuK = O=C(O)CC[C@H](NC(=O)N[C@@H](CCCCN*)C(=O)O)C(=O)O; Pteroyl = Nc1nc2ncc(CNc3ccc(C(=O)*)cc3)nc2c(=O)[nH]1; Dolaproine = CO[C@@H]([C@@H]1CCCN1)[C@@H](C)C(=O)O; Dil = CC[C@H](C)[C@H](NC)[C@@H](CC(=O)O)OC; X3 = O=C1CC([*:2])C(=O)N1CCCCCC(=O)[*:1]; γGlu = O=C(O)[C@H](CCC(=O)[*:2])N[*:1]; PABC = O=C(OCc1ccc(N[*:1])cc1)[*:2]; X1 = C[C@@H](N*)[C@@H](O)c1ccccc1; X2 = O=C(Cc1ccc(CN[*:1])cc1)[*:2]; Cit = NC(=O)NCCC[C@H](N)C(=O)O; NMeV = CN[C@H](C(=O)O)C(C)C; CO = O=C([*:1])[*:2]
# Legend:
# [1] = tested on: KB, PC-9, SPC-A1, CALU-3 and DU145 cell lines (CDX tumor models); experiment: Pharmacodynamic study of CB-18G in CDX models; assay type: in vivo, BALB/c-nude mice; settings: tail vein injection
# Protocol: CB-18G lyophilized powder was weighed, dissolved with PBS and prepared into a sample mother solution, and the mother solution was diluted with a physiological saline for injection to a sample solution with a working concentration for later use.
# Main cell lines: KB human oral epidermoid carcinoma cells, PC-9 human lung cancer cells, SPC-A1 human lung adenocarcinoma cells, CALU-3 human lung adenocarcinoma cells and DU145 human prostate cancer cells
# (§1) Model construction: The cells were resuscitated, cultured, collected and counted, and the cell solution was subcutaneously injected into the right flank of BALB/c-nude mice. When the tumor grew and expanded to 80-160 mm^3, grouping and administration were performed, or rapidly expanded tumor masses were transferred and injected to mice for scale up.
# (§2) Grouping: When the tumor grew to about 80-160 mm^3 on average, a grouping was performed, and a model control group and different doses of administration groups were set.
# (§3) Administration: The mice were administrated via tail vein injection.
# (§4) The weight of mice and the long diameter (a) and short diameter (b) of tumor mass were measured twice a week. The formula for the calculation of tumor volume (TV) is: TV=½×a×b^2.
# [2] = tested on: A549, Hela, SCLC-21H, U-2 OS, T-47D and NCI-H460 tumor cell lines; experiment: Inhibition of tumor cell expansion, CCK8 (CB-18G); assay type: cell-based, human
# Protocol: Cell lines: A549 human lung cancer cells, Hela human cervical cancer cells, SCLC-21H small cell lung cancer cells, U-2 OS human osteosarcoma cells, T-47D human breast cancer cells and NCI-H460 human lung cancer cells
# The cells were prepared in advance, digested with trypsin, collected and counted; diluted with a complete cell culture medium, A549 cells, Hela cells, SCLC-21H cells and U-2 OS cells were plated at a density of 2×10^4 cells/ml, and T-47D cells and NCI-H460 cells were plated at a density of 3×10^4 cells/ml in 96-well plates; to each well of the 96-well plates, 100 μl of the diluted cell solution was added; and negative control and blank control wells were set on each plate. The 96-well plates added with the cells were placed in an incubator at 37° C., 5% CO2 for culturing overnight.
# The samples were diluted with a culture medium to desired concentrations (see Table 15). […]
# (§5) To each well, 15 μl (10% of the liquid volume in a well) of a color developing solution from CCK-8 was added; the plates were incubated at 37° C. for an appropriate time (try to keep the OD value in the range of 1.0-2.0); the covers of the 96-well plates were removed, and the plates were read at 450 nm on a microplate reader (Molecular Devices Spectra MAX Plus). […]
# [3] = tested on: KB, PC-9 and DU145 cell lines (CDX tumor models); experiment: Pharmacodynamic study of CB-20B in CDX models; assay type: in vivo, BALB/c-nude mice; settings: tail vein injection
# Protocol: CB-20B lyophilized powder was weighed, dissolved with PBS and prepared into a sample mother solution, and the mother solution was diluted with a physiological saline for injection to a sample solution with a working concentration for later use.
# Main cell lines: KB human oral epidermoid carcinoma cells, PC-9 human lung cancer cells and DU145 human prostate cancer cells.
# as §1, with “collected,” for “collected and”, “and” for “and the cell solution was”
# as §2, §3, §4
# [4] = tested on: A549, HuH-7, KB, LNcap, DU145 and T-47D tumor cell lines; experiment: Inhibition of tumor cell expansion, CCK8 (CB-20B); assay type: cell-based, human
# Protocol: Cell lines: A549 human lung cancer cells, HuH-7 human liver cancer cells, KB human oral epidermoid carcinoma cells, LNCaP human prostate cancer cells, DU145 human prostate cancer cells and T-47D human breast cancer cells
# The cells were prepared in advance, digested with trypsin, collected and counted; diluted with a complete cell culture medium, A549 cells, HuH-7 cells, KB cells and DU145 cells were plated at a density of 2×10^4 cells/ml, T-47D cells were plated at a density of 1×10^5 cells/ml, and LNCaP cells were plated at a density of 6×10^4 cells/ml in 96-well plates; 100 μl of the diluted cell solution was added to each well; and negative control and blank control wells were set on each plate. The 96-well plates added with the cells were placed in an incubator at 37° C., 5% CO2 for culturing overnight.
# The samples were diluted with a culture medium to desired concentrations (see Table 11). […]
# as §5
SMILES,inhibitory effect in CDX tumor models (tumor volume) [1],"inhibitory effect on growth and expansion of tumor cell lines ([2]; 72 hours, CCK-8)",IC50 compared between cell lines ([2]; Hela versus NCI-H460),inhibitory effect in CDX tumor models (tumor volume) [3],"inhibitory effect on growth and expansion of tumor cell lines ([4]; 72 hours, CCK-8)","IC50 compared between cell lines ([4]; T-47D, LNcap, KB, HuH-7 and DU145 versus A549)"
CCCC(=O)N[C@@H](Cc1ccccc1)C(=O)N[C@H]1CSSC[C@@H](C(=O)N[C@H](C(=O)N[C@@H](CCCCNC(=O)[C@H](CCC(=O)O)NC(=O)CCOCCOCCOCCOCCNC(=O)[C@H](CCC(=O)O)NC(=O)[C@H](CSC2CC(=O)N(CCCCCC(=O)N[C@H](C(=O)NC(CCCNC(N)=O)C(=O)Nc3ccc(COC(=O)N(C)[C@H](C(=O)N[C@H](C(=O)N(C)[C@@H]([C@@H](C)CC)[C@@H](CC(=O)N4CCC[C@H]4[C@H](OC)[C@@H](C)C(=O)N[C@H](C)[C@@H](O)c4ccccc4)OC)C(C)C)C(C)C)cc3)C(C)C)C2=O)NC(=O)CC[C@H](NC(=O)c2ccc(NCc3cnc4[nH]c(N)nc(=O)c4n3)cc2)C(=O)O)C(N)=O)[C@@H](C)O)NC(=O)[C@H]([C@@H](C)O)NC(=O)[C@H](CCCCN)NC(=O)[C@H](Cc2c[nH]c3ccccc23)NC(=O)[C@H](Cc2ccc(O)cc2)NC1=O (stereo partly drawn) [CB-18G],good inhibitory effect,has an inhibitory effect,significantly lower,–,–,–
CC[C@H](C)[C@@H]([C@@H](CC(=O)N1CCC[C@H]1[C@H](OC)[C@@H](C)C(=O)N[C@H](C)[C@@H](O)c1ccccc1)OC)N(C)C(=O)[C@@H](NC(=O)[C@H](C(C)C)N(C)C(=O)OCc1ccc(NC(=O)[C@H](CCCNC(N)=O)NC(=O)[C@@H](NC(=O)CCCCCN2C(=O)CC(SC[C@H](NC(=O)[C@H](CC(=O)O)NC(=O)[C@H](CC(=O)O)NC(=O)Cc3ccc(CNC(=O)NCCCC[C@H](NC(=O)N[C@@H](CCC(=O)O)C(=O)O)C(=O)O)cc3)C(=O)N[C@@H](CCCCNC(=O)CC[C@H](NC(=O)c3ccc(NCc4cnc5[nH]c(N)nc(=O)c5n4)cc3)C(=O)O)C(N)=O)C2=O)C(C)C)cc1)C(C)C (stereo partly drawn) [CB-20B] (I: V[Cit][PABC][NMeV]V[Dil][Dolaproine]-X1 / II: {EuK-CO}-[X2]DDCK([γGlu-Pteroyl])-NH2; linker I:N-II:4 via X3),–,–,–,good inhibitory effect,has an inhibitory effect,significantly lower

# Source: US20220175761A1, “BI-LIGAND DRUG CONJUGATE AND USE THEREOF” (COHERENT BIOPHARMA (SUZHOU), LIMITED, priority 2019, published 2022)
